We go through four molecules from patent publication US20250152580A1, “METHODS FOR TREATING IMMUNE DISEASES” (Ascentage Pharma (Suzhou) co., Ltd., priority 2022, published 2025).

SMILES strings stand for the structures. Entries after “also recorded” stand apart in the source; their conditions may differ.

Type in all cases: in vivo
Assay [1] deals with LPS inhalation induced lung neutrophils infiltration model. The assay can be described thus: LPS inhalation induced neutrophils infiltration model in C57BL/6 mice. The settings on record: Cpd. 4 50 mg/kg oral each day, Cpd. X 50 mg/kg iv twice a week, Cpd. XI 12 mg/kg iv twice a week, week 4-10, compared with Vehicle. The procedure: C57BL/6 mice (6-8 weeks old) were obtained from Shanghai LC Laboratory Animal Co. Ltd. Animals, housed and handled in a temperature-controlled environment with a 12-h light/12-h dark cycle. A total of 60 female C57BL/6J mice will be modeled by atomization inhalation LPS 3 times a week for 10 weeks (adjustments may be made according to animal health status). LPS concentration is at 0.7 mg/mL. On each day of challenge, animals in G1 will receive aerosol inhalation of PBS and intravenous injection of Vehicle; animals in G2 will receive aerosol inhalation of LPS and intravenous injection of Vehicle; animals in G3 will be given aerosol inhalation of LPS and intravenous injection of 50 mg/kg Cpd. X twice a week (D1/4) from week 4-10; animals in G4 will be given aerosol inhalation of LPS and intravenous injection of 12 mg/kg Cpd.XI twice a week (D1/4) from week 4-10; animals in G5 will be given aerosol inhalation of LPS and oral administration of 50 mg/kg Cpd. 4 each day from week 4-10; animals in G6 will be given aerosol inhalation of LPS and oral administration of dexamethasone 1 hour before each challenge. Lungs will be gently lavaged via the tracheal cannula with 0.8 mL of PBS containing 1% BSA and 0.6 mM EDTA 48 hr after the last LPS exposure. The procedure will be repeated twice with 0.8 mL of PBS containing 1% BSA and 0.6 mM EDTA. The bronchoalveolar lavage fluid (BALF) will be centrifuged at 300×g for 5 min at 4° C., the cell pellet will be resuspended in 1.5 mL PBS. Total numbers of neutrophils in BALF will be counted using a hemocytometer.

The test system of assay [2] is OVA induced asthma model. The assay can be described thus: OVA (ovalbumin) induced asthma model in Balb/cA mice. The text has this:
Ovalbumin (OVA)-sensitized and challenged BALB/c mice are widely used as an asthma model and are characterized by high levels of serum IgE, airway inflammation, epithelial hypertrophy, goblet cell hyperplasia, and AHR, which are similar to the features observed in human allergic asthma.
Female Balb/cA mice (8 weeks old) were obtained from Shanghai Jihui Laboratory Animal Co. Ltd. Animals were housed and handled in a temperature-controlled environment with a 12-h light/12-h dark cycle. A total of 66 mice were assigned to 6 groups by randomization based on body weight.
Mice in Group 2 are intraperitoneally immunized with OVA (25 μg) emulsified in Imject alum (2.0 mg of Al[OH]3) on day 1. During this sensitization phase, the mice produce anti-OVA IgE antibodies, which bind IgE receptors on mast cells. After this sensitization, the mice are intratracheally challenged with OVA from day 8 today 14, resulting in OVA cross-linked IgE on mast cells and leading to degranulating mast cells. Mice then develop clinical features of asthma. The mice in the Group 1 normal control group were sensitized and challenged with […] (without OVA).
Mice in Group 1 and Group 2 were treated with vehicle for 7 days (po, qd, from day 8 to day 14). Mice in Group 3 were treated with 50 mg/kg Cpd. X for 8 days (iv, biw, day 1 and day 4). Mice in Group 4 were treated with 30 mg/kg Cpd. 4 for 7 days (po, qd, from day 8 to day 14). Mice in Group 5 were treated with 100 mg/kg Cpd. 4 for 7 days (po, qd, from day 8 to day 14). 3 mg/kg dexamethasone was used as positive control which was orally administered to mice in Group 6 for 7 days (qd, from day 8 to day 14). The protocols and procedures involving the care and use of animals were approved by the Institutional Animal Care and Use Committee (IACUC) at KCI (Suzhou, China).
Airway responsiveness was determined invasively based on lung resistance.
After challenge with aerosolized methacholine. Briefly, mice were challenged with methacholine aerosol in increasing concentrations (0, 6.25, 12.5, and 25 mg/mL in saline) on day 13 by using the noninvasive pulmonary function instrument. Data on lung resistance were continuously collected, and mean values were selected to express changes in airway function and regarded as one form of inflammation expression. Data are presented as the airway stenosis index (penh).
Twenty-four hours after the final OVA challenge (on day 15), mice were killed, and BAL cells were collected by means of slow injection of ice-cold PBS into the trachea, which was repeated 3 times. Numbers of cells in BAL fluid were counted with a chamber. Number of eosinophils in a total of 100 cells was counted under a microscope. Results are expressed as percentage of eosinophils of BAL fluid.
Twenty-four hours after the final OVA challenge (on day 15), mice were killed, and the serum was collected. The OVA-specific IgE levels were measured with the method of enzyme linked immunosorbent assay (ELISA) according to manufacturer protocol.
Twenty-four hours after the final OVA challenge (on day 15), mice were killed, and the lung tissue samples were collected and fixed in 4% paraformaldehyde. Then, they were embedded in paraffin and cut into […] sections for histopathological analysis. Lung sections were then stained with hematoxylin and eosin (H&E) to calculate the inflammatory changes. The histopathological score was evaluated microscopically in a blinded manner. Five arbitrarily selected fields of each mouse were photographed with an optical microscope and the images were determined and analyzed in detail. […]

Assay [3] deals with IMQ induced psoriasis model. The assay can be described thus: IMQ induced psoriasis model in Balb/c mice. The settings on record: Cpd. 4 100 mg/kg po qd day 0-6; tofacitinib 30 mg/kg po bid; compared with Vehicle. The text has this:
Imiquimod (IMQ) is a ligand for TLRs (Toll-like receptors) of immune cells (including macrophages, monocytes and plasmacytoid dendritic cells), and therefore contributes to strong activation of the immune system.
Female Balb/c mice (7-8 weeks old) were obtained from B&K Universal Animal Co. Ltd. Animals were housed and handled in a temperature-controlled environment with a 12-h light/12-h dark cycle. A total of 36 mice were assigned to 4 groups by randomization based on body weight (6 mice in normal control group and 10 mice in other 3 groups).
At the beginning of the study on day 0, five groups were administered a daily topical dose of 80 mg of a cream preparation containing 5% IMQ on their hair-free backs to establish a model of IMQ-induced psoriasis for seven consecutive days. The G1 normal control group received appropriate vaseline.
Mice in Group 1 and Group 2 were treated with vehicle for 7 days (po, qd, from day 0 to day 6). Mice in Group 3 were treated with 100 mg/kg Cpd. 4 for 7 days (po, qd, from day 0 to day 6). Mice in Group 4 were treated with 30 mg/kg tofacitinib for 7 days (po, bid, from day 0 to day 6). The protocols and procedures involving the care and use of animals were approved by the Institutional Animal Care and Use Committee (IACUC) at KCI (Suzhou, China).
The severity of skin inflammation was monitored and graded using a modified human scoring system Psoriasis Area Severity Index (PASI). Scaling, thickness, and erythema were scored separately on a scale from 0 to 4:0, none; 1, slight; 2, moderate; 3, marked; and 4, very marked. The total score denotes severity of inflammation. Ear thickness of mice was measured every day from day 0 to day 7.
Ear thickness of mice was measured every day from day 0 to day 7. […] Compared with G1 normal control group, after IMQ treatment, ear swelling was observed indicated by increased ear thickness in G2 group reaching the maximal ear thickness to 0.40±0.02 mm on day 7. Cpd.

Assay [4] relates to TNBS induced inflammatory bowel disease (IBD) model. The assay can be described thus: TNBS induced inflammatory bowel disease (IBD) model in Balb/c mice. The following applies: 50 mg/kg po qd, mesalamine day −1 to day 6, compared with Vehicle. The text has this: There are two kinds of IBD: Crohn's disease (CD) and ulcerative colitis (UC). TNBS administration results in a preclinical mouse model replicating clinical Crohn's disease.
Female Balb/c mice (8 weeks old) were obtained from Beijing Vital River Laboratory Animal Co. Ltd. Animals were housed and handled in a temperature-controlled environment with a 12-h light/12-h dark cycle. A total of 50 mice were assigned to 5 groups by randomization based on body weight.
On Day 0, the mice weighing 18-20 g were anesthetized with […] (Easycheck, M2910). The mice were further intra-rectally injected 100 μL 1.5% TNBS solution (final concentration 50% ethanol) in the vehicle group and other treatment groups. For the Sham group, the mice were intra-rectally injected with 50% ethanol at the same volume.
Mice in Group 1 and Group 2 were treated with vehicle for 8 days (po, qd, from day −1 to day 6). Mice in Group 3 were treated with 50 mg/kg Cpd. 4 for 8 days (preventive regimen, po, qd, from day −1 to day 6). Mice in Group 4 were treated with 50 mg/kg Cpd. 4 for 6 days (therapeutic regimen, po, qd, from day 1 to day 6). 50 mg/kg Mesalamine was used as positive control which was orally administered to mice in Group 5 for 8 days (preventive regimen, qd, from day −1 to day 6). The protocols and procedures involving the care and use of animals were approved by the Institutional Animal Care and Use Committee (IACUC) at WuxiApptec (Shanghai, China).
Clinical signs of IBD were assessed every day based on the score of disease activity index (DAI) which was evaluated from three parameters using a scoring system from 0 to 4: stool consistency (0, normal stool; 1, soft but still formed stool; 2, soft and not formed stool; 3, very soft and wet stool; 4, watery diarrhea), bleeding score (0, negative hemoccult; 1, weak positive hemoccult; 2, positive hemoccult; 3, blood trace in stool visible; 4, gross rectal bleeding) and body weight loss (0, no body weight loos; 1, 1-5% body weight loss; 2, 6-10% body weight loss; 3, 11-20% body weight loss; 4, >20% body weight loss).
At the end of induction with TNBS (day 7), the animals were euthanized, dissected and the entire colon was quickly removed and gently cleared of feces.
The entire colon was weighed, and the total length was measured. Colon weight gain and shortening is an indirect marker of inflammation. As expected, colon weight induced by TNBS increased to 336.8±25.15 mg. […] The TNBS-induced colon weight increasement were improved by Cpd. 4 treatment (202.4±3.95 mg for 50 mg/kg Cpd. 4 preventive therapy and 214.4±5.17 mg for 50 mg/kg Cpd. 4 therapeutic therapy) (FIG. 2).
At the end of induction with TNBS, the animals were euthanized, and blood was collected immediately by the heart punctures and used for whole blood cell analysis.
At the end of the study (day 7), the cell suspensions from sham control, model control and Cpd. 4 therapeutic treatment groups were obtained from mesenteric lymph nodes (MLN). Cells were stained with the following florescence-labelled antibodies: APC-Cy7-conjugated anti-mouse CD45, BV510-conjugated anti-mouse CD3e, AF700-conjugated anti-mouse CD8a, BUV395-conjugated anti-mouse CD4, BV421-conjugated anti-mouse CD25, FITC-conjugated anti-mouse Foxp3, BV650-conjugated anti-mouse IFN-γ, BV786-conjugated anti-mouse IL-17A, BB700-conjugated anti-mouse TNF-α, APC-conjugated anti-mouse B220, BV395-conjugated anti-mouse CD3e, BV605-conjugated anti-mouse CD11b, BB700-conjugated anti-mouse CD11c, AF488-conjugated anti-mouse MHCII, BV421-conjugated anti-mouse NK1.1, BV510-conjugated anti-mouse Ly6G, PE-Cy7-conjugated anti-mouse CD107a and PE-CF594-conjugated anti-mouse F4/80. All cells were primarily gated on single and live lymphocytes based on forward scatter (FCS), side scatter (SSC) and live/dead staining buffer. Samples were analyzed on a flow cytometer (BD LSRFortessa) to count the percentage of each subtype of lymphocytes. […]

Setting [5] is: day 15, Cpd. 4 30 and 100 mg/kg po qd, Cpd. X 50 mg/kg iv biw, dexamethasone 3 mg/kg po qd, compared with Vehicle.
The mark [6] stands for this setting: Cpd. 4 preventive and therapeutic.

Consider `Cc1c(S(C)(=O)=O)c(-c2cc(F)cc(N3CCN(c4ccc(NS(=O)(=O)c5ccc(N[C@H](CCN6CCC(C(=O)O)CC6)CSc6ccccc6)c(S(=O)(=O)C(F)(F)F)c5)cc4)CC3)c2)c(-c2ccc(Cl)cc2)n1C(C)C` [Cpd. XI], for which the results for the “BALF neutrophils (infiltration in lung)” value in assay [1] and in assay [1] (listed as Cpd.XI) were “significantly reduced” and “significantly reducing the BALF neutrophils”, respectively.

As for `Cc1c(S(C)(=O)=O)c(-c2cc(F)cc(N3CCN(c4ccc(NS(=O)(=O)c5ccc(N[C@H](CCN6CCC(C(=O)OCCCP(=O)(O)O)CC6)CSc6ccccc6)c(S(=O)(=O)C(F)(F)F)c5)cc4)CC3)c2)c(-c2ccc(Cl)cc2)n1C(C)C` [Cpd. X], the “BALF neutrophils (infiltration in lung)” value in assay [1] is on record as “significantly reducing the BALF neutrophils; also recorded: significantly reduced”. The “pathological score in lung tissues (H&E)” value in assay [2] (50 mg/kg iv biw, day 15, vehicle 4.08±0.23) came to 2.58±0.15. The “pathological score in lung tissues (in words)” value in assay [2] (Cpd. 4 and Cpd. X, compared with Vehicle) is recorded as “significantly ameliorated”. Moreover, in assay [2] (setting [5]), the “percentage of eosinophils in BALF” value is listed as “downregulated markedly; also recorded: significantly downregulated” and the “serum OVA-specific IgE (ELISA)” value is recorded as “significantly reduced”. Further, in assay [2] (methacholine challenge day 13, Cpd. 4 30 and 100 mg/kg po qd day 8-14, Cpd. X 50 mg/kg iv biw, dexamethasone 3 mg/kg po qd, compared with Vehicle), the “airway stenosis index (penh), airway hyper-responsiveness (AHR)” value is listed as “significant inhibitory activity; also recorded: significantly reduced”.

In the case of `C[C@@H]1CCN(C(=O)CC#N)C[C@@H]1N(C)c1ncnc2[nH]ccc12` [tofacitinib, reference compound], the “PASI score (Psoriasis Area Severity Index)” value in assay [3] was “significantly lower PASI”.

With `Nc1ccc(O)c(C(=O)O)c1` [mesalamine, Mesalamine, reference compound], in assay [4] (Cpd. 4 preventive (day −1 to day 6) and therapeutic (day 1 to day 6) regimens), the “disease activity index (DAI), clinical score of IBD” value is reported as “significantly lowered DAI”. For the same molecule, in assay [4] (setting [6]), the “colon length (in words)” value was “significantly increased the colon length” and the “colon weight (in words)” value is reported as “significantly reduced the colon weight”.
